In patent publication US10675267B2, “Methods for detection and eradication of myeloid leukemia stem cells” (priority 2015, dated 2020):
“Also recorded” adds a separate entry of the source.

How the values were obtained:
[1] = tested on: MOLM-13 cells; experiment: In vitro splicing of endogenous transcripts (qRT-PCR, RT-PCR) in MOLM-13; type: cell-based
Method: For qRT-PCR analysis of relative total mRNA expression levels or splice isoform-specific expression analyses, cDNA was synthesized using 50 ng-1 […] of template RNA in 20 μL reaction volumes using the First-Strand SUPERSCRIPT™ III Reverse Transcriptase Supermix (Life Technologies) followed by incubation with RNase H according to the manufacturer's protocol and as described previously. All cDNA products were stored at −20° C. Splice isoform-specific primers for PTK2B-202 were designed to bind to unique exon junctions for this transcript, which lacks exon 24. All primers (Table 2) were diluted to 10 μM working dilutions in DNase/RNase-free water. qRT-PCR was performed in duplicate using cDNA (1 μL reverse transcription product per reaction) on an iCycler (Bio-Rad, Hercules, Calif.) using SYBR® GREENER™ Super Mix (Life Technologies) in 25-μL volume reactions containing 0.2 μM of each forward and reverse primer. Cycling conditions were as follows: 50° C. for 2 minutes, then 95° C. for 8 minutes and 30 seconds, followed by 40 cycles of 95° C. for 15 seconds and 60° C. for 60 seconds. Melting curve analysis was performed on each plate according to the manufacturer's instructions. For standard qRT-PCR, human HPRT mRNA transcript levels were used to normalize Ct values obtained for each gene, and relative expression levels were calculated using the 2^−ddCt method. To ensure validity of results, only Ct values <35 were used in gene expression analyses. All primer sets were tested in a no-template control (NTC) reaction containing only water instead of cDNA, and all gave Ct values >35 in NTC reactions.
For evaluation of in vitro splicing activity of endogenous transcripts in HEK293 or a sAML cell line, MOLM-13 (mycoplasma-free and cytogenetically-authenticated cell lines obtained from DMSZ), cells were plated in complete media (DMEM containing 10% FBS for HEK293 and RPMI containing 20% FBS for MOLM-13). The next day, FD-895, 17S-FD-895 or DMSO vehicle controls were added at doses ranging from 0.01-10 μM for 4 hrs of treatment. Cells were lysed in RLT buffer (Qiagen) and processed for RNA extraction and subsequent PCR analyses using primers specific for DNAJB1 or MCL1 (Table 2). For all experiments in cell line, cells obtained from the vendors were frozen down in bulk at low passage numbers and used within 20 passages to minimize risk of cell line misidentification or acquisition of additional chromosomal abnormalities.
For qRT-PCR analysis of relative total mRNA expression levels or splice isoform-specific expression analyses, cDNA was synthesized using 50 ng-1 […] reaction volumes using the First-Strand SUPERSCRIPT™ III Reverse Transcriptase Supermix (Life Technologies) followed by incubation with RNase H according to the manufacturer's protocol and as described previously (Abrahamsson et al., 2009; Crews et al., 2015). All cDNA products were stored at −20° C. Splice isoform-specific primers for PTK2B-202 were designed to bind to unique exon junctions for this transcript, which lacks exon 24. All primers (Supplemental Experimental Procedures Table) were diluted to 10 ∝M working dilutions in DNase/RNase-free water. qRT-PCR was performed in duplicate using cDNA (1 ∝Λ reverse transcription product per reaction) on an iCycler (Bio-Rad, Hercules, Calif.) using SYBR® GREENER™ Super Mix (Life Technologies) in 25-∝A volume reactions containing 0.2 ∝M of each forward and reverse primer. Cycling conditions were as follows: 50° C. for 2 minutes, then 95° C. for 8 minutes and 30 seconds, followed by 40 cycles of 95° C. for 15 seconds and 60° C. for 60 seconds. Melting curve analysis was performed on each plate according to the manufacturer's instructions. For standard qRT-PCR, human HPRT mRNA transcript levels were used to normalize Ct values obtained for each gene, and relative expression levels were calculated using the 2-ddCt method. To ensure validity of results, only Ct values <35 were used in gene expression analyses. […]

[2] = tested on: human CD34+ cell fractions from spleens and bone marrow of AML-37 engrafted mice; experiment: RNA-Seq of human CD34+ cells pooled from spleens and bone marrow of treated sAML-engrafted mice; type: in vivo
Method: In vivo molecular response to therapeutic splicing modulation. RNA-seq analysis was performed in human CD34+ cell fractions isolated from spleens and bone marrow of 17S-FD-895-treated sAML-engrafted mice. […] The data are set forth in Table 4 following, which formed the basis for calculation of FIG. 17G.
Xenograft sequencing data of 2×150 bp paired end reads were trimmed using cutadapt 1.8.1, aligned using STAR 2.5.0b against the GRCh37 reference FASTA sequence with the Ensembl GRCh37.75 GTF as a splice junction source. Strandedness was inferred using modulate “infer_experiment.py” from the RSeQC package (Wang et al., 2012). Then, transcripts were quantified using Cufflinks v2.2.1 (Trapnell et al., 2010) against the Ensembl GRCh37.75 GTF reference with bias correction against the GRCh37 reference FASTA. This yielded Cufflinks FPKM values. Isoforms sharing gene names were summed to yield gene FPKMs. FPKM values were transformed to generate log 2(FPKM+1) for all transcripts in the sAML isoform signature (FIGS. 11D, 11E, 12D), comparing vehicle versus 10 mg/kg treatment groups for spleen and bone marrow. Then, a heatmap was generated using all transcripts showing a L2FC>0.5 in both tissues, occurring in the opposite direction of the L2FC transcript expression values in sAML versus normal age-matched controls (i.e. L2FC>1 in sAML, L2FC<−0.5 in 10 mg/kg-treated spleen and bone marrow).
Gene expression data in FPKM was submitted to GSEA to determine significant KEGG pathways, and enrichment plots describing ranked gene expression in those pathways. Additional analyses were performed using custom gene sets including genes associated with the top differentially expressed transcript signatures in aged (“aged up”) versus young (“young up”) HPC and sAML (“sAML up”) versus aged (“aged up”) HPC (FIGS. 11D, 11E, 12D). We acknowledge our use of the gene set enrichment analysis, GSEA software, and Molecular Signature Database (see website: broad.mit.edu). […]

CC[C@H](OC)[C@@H](C)[C@H]1O[C@@H]1[C@@H](O)[C@H](C)/C=C/C=C(\C)[C@H]1OC(=O)C[C@H](O)CC[C@@](C)(O)[C@@H](OC(C)=O)/C=C/[C@@H]1C (stereo in doubt) [Formula 17S-FD-895, 17S-FD-895]
EC50 of the 1 μM treatment condition (time course of DNAJB1 intron 2 retention) ([1]; MOLM-13, 1 μM, 30 mins-24 hrs, qRT-PCR, 95% C.I.): 3.2 to 6.5 h
MCL1-S expression (qRT-PCR) ([1]; MOLM-13, 0.01-10 μM, 4 hrs): low doses of 17S-FD-895 increased MCL1-S expression, this effect was reversed at high doses
PTK2B-202 expression (isoform-specific qRT-PCR) ([1]; MOLM-13, short-term treatment): reduced expression
time at which the increase in DNAJB1 intron 2 levels occurred after initiation of treatment ([1]; MOLM-13 sAML cells): 30 min
DNAJB1 intron 2 retention ([1]; MOLM-13 sAML cells, 0.01-10 μM 4 hrs, time course 30 mins-24 hrs): rapid and dose-dependent increase; also recorded: time- and dose-dependent increase
MCL1 splicing pattern (RT-PCR, primers flanking exon 2) ([1]; MOLM-13 versus HEK293, 4 hrs): triggered MCL1 exon 2 skipping; also recorded: increased intron retention predominantly in sAML cells (MOLM-13)
GSEA of the “aged up” signature ([2]; 10 mg/kg treated mice versus vehicle): enriched
expression of sAML-specific transcripts STAT6-016 and ITGB2-201 ([2]; higher treatment doses, bone marrow and spleen): reverted to a normal expression pattern
PTK2B transcripts ([2]; spleen and bone marrow, after treatment): decreased
